Values after ≈ are worked out from the molar mass of the structure shown. Like-named read-outs stand apart in the source and are kept apart here.
What was measured:
S. aureus ATCC 25923 [1] = assay: Antibacterial activity, pre-exposure (planktonic cells and biofilm formation); format: cell-based, Staphylococcus aureus; settings: for MIC / inhibition at 5 µM / inhibition at 10 µM / inhibition at 15 µM / inhibition at 25 µM: Staphylococcus aureus, ATCC25923; for inhibition at 5 µM / inhibition at 10 µM / inhibition at 15 µM / inhibition at 25 µM / Average inhibition %, biofilms viability / Average inhibition %, planktonic cells viability: pre-exposure, ± SD
Summary of the method: (§1)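 Read-outs were turbidity and resazurin reduction for planktonic cells, and resazurin followed by crystal violet biomass (A595) for biofilms. Compounds were present from inoculation onward, with 18 h aerobic growth at 37 °C under shaking.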

S. aureus ATCC 25923 [2] = assay: Antibacterial activity, post-exposure on preformed 18-h-old biofilms; format: cell-based, Staphylococcus aureus; settings: ± SD; for inhibition at 25 µM / inhibition at 50 µM / inhibition at 100 µM / inhibition at 200 µM: Staphylococcus aureus; for inhibition at 25 µM: ATCC25923, 25 µM; for inhibition at 50 µM: ATCC25923, 50 µM; for inhibition at 100 µM: ATCC25923, 100 µM; for inhibition at 200 µM: ATCC25923, 200 µM
Summary of the method: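 Biofilms grown 18 h without compound, medium then replaced and compound added for a further 24 h. Planktonic OD and resazurin (20 μM final) fluorescence (ex 560/em 590 nm) read; washed biofilms stained with 20 μM resazurin 30 min at 37 °C, then ethanol-fixed and crystal violet-stained, absorbance 595 nm.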

A. baumannii NCTC 13423 = assay: Antibacterial activity, pre-exposure; format: cell-based, Acinetobacter baumannii; settings: for Average inhibition %, biofilms viability / Average inhibition %, planktonic cells viability / inhibition at 10 µM / inhibition at 15 µM / inhibition at 25 µM / inhibition at 50 µM: A. baumannii NCTC 13423, pre-exposure, ± SD; for inhibition at 10 µM / inhibition at 15 µM / inhibition at 25 µM / inhibition at 50 µM: Acinetobacter baumannii, NCTC13423
Summary of the method: as §1

P. aeruginosa ATCC 9027 = assay: Antibacterial activity, pre-exposure; format: cell-based, Pseudomonas aeruginosa; settings: for Average inhibition %, biofilms viability / Average inhibition %, planktonic cells viability / inhibition at 50 µM / inhibition at 100 µM / inhibition at 150 µM / inhibition at 200 µM: P. aeruginosa ATCC 9027, pre-exposure, ± SD; for inhibition at 50 µM / inhibition at 100 µM / inhibition at 150 µM / inhibition at 200 µM: Pseudomonas aeruginosa, ATCC9027
Summary of the method: as §1

[3] = 10 µM, read-out: Average inhibition %, biofilms biomass
[4] = 10 µM, read-out: Average inhibition %, planktonic cells turbidity
[5] = 15 µM, read-out: Average inhibition %, biofilms biomass
[6] = 15 µM, read-out: Average inhibition %, planktonic cells turbidity
[7] = 25 µM, read-out: Average inhibition %, biofilms biomass
[8] = 25 µM, read-out: Average inhibition %, planktonic cells turbidity
[9] = read-out: Average inhibition %, biofilms biomass
[10] = read-out: Average inhibition %, planktonic cells turbidity
[11] = 50 µM, read-out: Average inhibition %, biofilms biomass
[12] = 50 µM, read-out: Average inhibition %, planktonic cells turbidity

MIC (S. aureus ATCC 25923 [1]; lowest concentration with no visible growth (>90% inhibition of turbidity and viability of planktonic cells), 18 h, read-out: MIC S. aureus ATCC 25923): 10 to 15 µM (≈ 3.87 to 5.8 µg/mL)
MIC (S. aureus ATCC 25923 [1]; read-out: MIC (S. aureus)): 10 to 15 µM (≈ 3.87 to 5.8 µg/mL)
MIC A. baumannii NCTC 13423 (A. baumannii NCTC 13423; pre-exposure, Inactive = no activity up to 50 μM, > = some inhibition but no MIC reached): Inactive
MIC P. aeruginosa ATCC 9027 (P. aeruginosa ATCC 9027; pre-exposure, Inactive = no activity up to 200 μM, > = some inhibition but no MIC reached): Inactive
SMILES: CCCCCCCCCCc1ccc2nc(CCC(N)(CO)CO)ccc2c1 [Compound 81, 2-Amino-2-[2-(6-decylquinolin-2-yl)ethyl]propane-1,3-diol]
inhibition at 5 µM (S. aureus ATCC 25923 [1]; 5 µM, read-out: Average inhibition %, biofilms biomass): 28.1 ± 33.9%
inhibition at 5 µM (S. aureus ATCC 25923 [1]; 5 µM, read-out: Average inhibition %, planktonic cells turbidity): 33.4 ± 30.9%
inhibition at 10 µM (S. aureus ATCC 25923 [1]; [3]): 66 ± 27.6%
inhibition at 10 µM (S. aureus ATCC 25923 [1]; [4]): 57.3 ± 36.4%
inhibition at 15 µM (S. aureus ATCC 25923 [1]; [5]): 98.4 ± 0.3%
inhibition at 15 µM (S. aureus ATCC 25923 [1]; [6]): 99.3 ± 0.2%
inhibition at 25 µM (S. aureus ATCC 25923 [1]; [7]): 97.3 ± 0.1%
inhibition at 25 µM (S. aureus ATCC 25923 [1]; [8]): 98.6 ± 0.3%
Average inhibition %, biofilms viability (S. aureus ATCC 25923 [1]; 5 µM): 28.3 ± 16.5%
Average inhibition %, planktonic cells viability (S. aureus ATCC 25923 [1]; 5 µM): 23.5 ± 26.1%
Average inhibition %, biofilms viability (S. aureus ATCC 25923 [1]; 10 µM): 64 ± 29.7%
Average inhibition %, planktonic cells viability (S. aureus ATCC 25923 [1]; 10 µM): 33.9 ± 57%
Average inhibition %, biofilms viability (S. aureus ATCC 25923 [1]; 15 µM): 99.1 ± 1%
Average inhibition %, planktonic cells viability (S. aureus ATCC 25923 [1]; 15 µM): 99.7 ± 0%
Average inhibition %, biofilms viability (S. aureus ATCC 25923 [1]; 25 µM): 99.1 ± 1.4%
Average inhibition %, planktonic cells viability (S. aureus ATCC 25923 [1]; 25 µM): 99.7 ± 0.1%
Average inhibition %, biofilms viability (S. aureus ATCC 25923 [2]; 25 µM): 6.4 ± 8.2%
Average inhibition %, planktonic cells viability (S. aureus ATCC 25923 [2]; 25 µM): 8.8 ± 7.7%
Average inhibition %, biofilms viability (S. aureus ATCC 25923 [2]; 50 µM): 18.3 ± 16.6%
Average inhibition %, planktonic cells viability (S. aureus ATCC 25923 [2]; 50 µM): 6.9 ± 10.4%
Average inhibition %, biofilms viability (S. aureus ATCC 25923 [2]; 100 µM): 20.9 ± 18.1%
Average inhibition %, planktonic cells viability (S. aureus ATCC 25923 [2]; 100 µM): 28.8 ± 17.2%
Average inhibition %, biofilms viability (S. aureus ATCC 25923 [2]; 200 µM): 20.1 ± 16%
Average inhibition %, planktonic cells viability (S. aureus ATCC 25923 [2]; 200 µM): 7.8 ± 11.1%
inhibition at 25 µM (S. aureus ATCC 25923 [2]; [9]): 9.7 ± 8.6%
inhibition at 25 µM (S. aureus ATCC 25923 [2]; [10]): 22.7 ± 32.9%
inhibition at 50 µM (S. aureus ATCC 25923 [2]; [9]): 28.5 ± 12.5%
inhibition at 50 µM (S. aureus ATCC 25923 [2]; [10]): 10 ± 17.4%
inhibition at 100 µM (S. aureus ATCC 25923 [2]; [9]): 34.6 ± 8.2%
inhibition at 100 µM (S. aureus ATCC 25923 [2]; [10]): 19 ± 22.4%
inhibition at 200 µM (S. aureus ATCC 25923 [2]; [9]): 25 ± 11.6%
inhibition at 200 µM (S. aureus ATCC 25923 [2]; [10]): 11.2 ± 16.9%
Average inhibition %, biofilms viability (A. baumannii NCTC 13423; 10 µM): 0 ± 0%
Average inhibition %, planktonic cells viability (A. baumannii NCTC 13423; 10 µM): 7.5 ± 7.6%
Average inhibition %, biofilms viability (A. baumannii NCTC 13423; 15 µM): 0 ± 0%
Average inhibition %, planktonic cells viability (A. baumannii NCTC 13423; 15 µM): 5.8 ± 6.2%
Average inhibition %, biofilms viability (A. baumannii NCTC 13423; 25 µM): 0 ± 0%
Average inhibition %, planktonic cells viability (A. baumannii NCTC 13423; 25 µM): 2.6 ± 2.1%
Average inhibition %, biofilms viability (A. baumannii NCTC 13423; 50 µM): 0.8 ± 1.4%
Average inhibition %, planktonic cells viability (A. baumannii NCTC 13423; 50 µM): 2.6 ± 3.8%
inhibition at 10 µM (A. baumannii NCTC 13423; [3]): 0%
inhibition at 10 µM (A. baumannii NCTC 13423; [4]): 0.2 ± 0.5%
inhibition at 15 µM (A. baumannii NCTC 13423; [5]): 2.1 ± 3.6%
inhibition at 15 µM (A. baumannii NCTC 13423; [6]): 0%
inhibition at 25 µM (A. baumannii NCTC 13423; [7]): 3.6 ± 6.2%
inhibition at 25 µM (A. baumannii NCTC 13423; [8]): 0%
inhibition at 50 µM (A. baumannii NCTC 13423; [11]): 5.6 ± 5.9%
inhibition at 50 µM (A. baumannii NCTC 13423; [12]): 0.5 ± 0.9%
Average inhibition %, biofilms viability (P. aeruginosa ATCC 9027; 50 µM): 4.9 ± 5.2%
Average inhibition %, planktonic cells viability (P. aeruginosa ATCC 9027; 50 µM): 10.9 ± 9.5%
Average inhibition %, biofilms viability (P. aeruginosa ATCC 9027; 100 µM): 3.8 ± 4.9%
Average inhibition %, planktonic cells viability (P. aeruginosa ATCC 9027; 100 µM): 20.3 ± 12.9%
Average inhibition %, biofilms viability (P. aeruginosa ATCC 9027; 150 µM): 7.9 ± 11.7%
Average inhibition %, planktonic cells viability (P. aeruginosa ATCC 9027; 150 µM): 16.3 ± 5.7%
Average inhibition %, biofilms viability (P. aeruginosa ATCC 9027; 200 µM): 0.3 ± 0.5%
Average inhibition %, planktonic cells viability (P. aeruginosa ATCC 9027; 200 µM): 17 ± 16.2%
inhibition at 50 µM (P. aeruginosa ATCC 9027; [11]): 3.6 ± 4.6%
inhibition at 50 µM (P. aeruginosa ATCC 9027; [12]): 29.2 ± 5.8%
inhibition at 100 µM (P. aeruginosa ATCC 9027; 100 µM, read-out: Average inhibition %, biofilms biomass): 0%
inhibition at 100 µM (P. aeruginosa ATCC 9027; 100 µM, read-out: Average inhibition %, planktonic cells turbidity): 41.2 ± 11.2%
inhibition at 150 µM (P. aeruginosa ATCC 9027; 150 µM, read-out: Average inhibition %, biofilms biomass): 4 ± 7%
inhibition at 150 µM (P. aeruginosa ATCC 9027; 150 µM, read-out: Average inhibition %, planktonic cells turbidity): 38.2 ± 12.2%
inhibition at 200 µM (P. aeruginosa ATCC 9027; 200 µM, read-out: Average inhibition %, biofilms biomass): 0.7 ± 0.6%
inhibition at 200 µM (P. aeruginosa ATCC 9027; 200 µM, read-out: Average inhibition %, planktonic cells turbidity): 30.5 ± 8.3%
